Read-outs that look alike come from different tables or passages of the source. Marks after values point to notes of the source that are not given here.
Tests used:
[1] = tested on: male Fischer 344 rats; conditions: ref Patel et al., 2008, cited from earlier work
[2] = tested on: male Fischer 344 rats; assay: Serum alanine aminotransferase; format: in vivo; conditions: 24 h; for serum alanine aminotransferase (ALT) activity: corn oil controls 36.0 ± 11.3
[3] = tested on: male Fischer 344 rats; assay: Blood urea nitrogen; format: in vivo; conditions: for Blood urea nitrogen: i.p. in corn oil, 24 h, mean ± SE, N = 3–4
[4] = tested on: male Fischer 344 rats; assay: Urine volume after a single i.p. dose; format: in vivo; conditions: for Twenty-four-hour urine volume: i.p. in corn oil, mean ± SE, N = 3–4
[5] = tested on: male Fischer 344 rats; assay: Six-hour urine protein content after a single i.p. dose; format: in vivo; conditions: i.p. in corn oil, mean ± SE, N = 3–4
[6] = tested on: male Fischer 344 rats; assay: Liver weight 24 h after a single i.p. dose; format: in vivo; conditions: i.p. in corn oil, mean ± SE, N = 3–4
[7] = tested on: male Fischer 344 rats; assay: Kidney weight 24 h after a single i.p. dose; format: in vivo; conditions: i.p. in corn oil, mean ± SE, N = 3–4
[8] = tested on: male Fischer 344 rats; assay: Liver histology; format: in vivo; conditions: 24 h
[9] = tested on: male Fischer 344 rats; assay: Kidney histology; format: in vivo; conditions: all doses evaluated, i.p., 24 h, vs corn oil
[10] = tested on: male Fischer 344 rats; assay: Clinical observation 24 h after dosing; format: in vivo, rat; conditions: 0.6 mmol/kg i.p., 24 h after dosing (sluggish movements and low body temperatures)
[11] = dose 0.2 (head mg/kg; text mmol/kg)
[12] = dose 0.4 (head mg/kg; text mmol/kg)
[13] = dose 0.6 (head mg/kg; text mmol/kg)
[14] = dose 1.0 (head mg/kg; text mmol/kg)

SMILES | Blood urea nitrogen [3, 11] | Blood urea nitrogen [3, 12] | Blood urea nitrogen [3, 13] | Twenty-four-hour urine volume [4, 11] | Twenty-four-hour urine volume [4, 12] | Twenty-four-hour urine volume [4, 13] | Six-hour urine protein content [5, 11] | Six-hour urine protein content [5, 12] | Six-hour urine protein content [5, 13] | Liver weight [6, 11] | Liver weight [6, 12] | Liver weight [6, 13] | Kidney weight [7, 11] | Kidney weight [7, 12] | Kidney weight [7, 13] | Liver morphology ([8]; 0.2 and 0.4 mmol/kg i.p.) | Kidney morphology [9] | serum alanine aminotransferase (ALT) activity ([2]; 1.0 mmol/kg i.p. in corn oil) [Sigma-Frankel units/ml] | Blood urea nitrogen [3, 14] | Twenty-four-hour urine volume [4, 14] | further results
O=C1CSC(=O)N1c1cc(Cl)cc(Cl)c1 [DCPT, 3-(3,5-dichlorophenyl)-2,4-thiazolidinedione] |  |  |  |  |  |  |  |  |  |  |  |  |  |  |  |  |  |  |  |  | ALT values ([1]; 0.2 mmol/kg): 26.7 ± 6.6 SF units/ml; ALT values ([1]; 0.4 mmol/kg): 231.5 ± 50.0 SF units/ml; ALT values ([1]; 0.6 mmol/kg): 281.7 ± 103.0 SF units/ml; ALT values ([1]; 1.0 mmol/kg): 506.9 ± 99.4 SF units/ml
O=C(O)CSC(=O)Nc1cc(Cl)cc(Cl)c1 [DCTA, [[[(3,5-dichlorophenyl)amino]carbonyl]thio]acetic acid] | 21.0 ± 1.0^b mg/dl | 62.2 ± 11.2*,^c mg/dl | 67.8 ± 17.9*,^c mg/dl | 12.5 ± 3.8^b ml | 13.1 ± 2.4^b ml | 9.5 ± 5.0^b ml | 2.9 ± 0.9^b mg | 2.5 ± 0.4^b mg | 2.5 ± 1.1^b mg | 3.58 ± 0.21^b g/100% BW | 3.62 ± 0.05^b g/100% BW | 3.46 ± 0.17^b g/100% BW | 0.40 ± 0.01^b g/ 100% BW | 0.43 ± 0.01 *,^b,^c g/ 100% BW | 0.45 ± 0.01 *,^c g/ 100% BW | did not produce any significant changes | did not exhibit obvious changes in kidney morphology |  |  |  | ALT elevation compared to corn oil controls ([2]; 0.6 mmol/kg i.p.): about 2 fold; Change in serum ALT levels ([2]; 0.2 and 0.4 mmol/kg i.p.): no changes were noted; Increase in serum BUN concentrations ([3]; 0.4 and 0.6 mmol/kg, compared to corn oil and the 0.2 mmol/kg dose): about 3 fold; Liver morphology ([8]; 0.6 mmol/kg i.p.): nuclear condensation was apparent in some hepatocytes; Clinical appearance [10]: appeared to be moribund
Cc1cc(C)cc(N2C(=O)CSC2=O)c1 [DMPT, 3-(3,5-dimethylphenyl)-2,4-thiazolidinedione] | 18.1 ± 1.3^a mg/dl | 22.2 ± 0.4^a mg/dl | 27.5 ± 1.4*,^b mg/dl | 5.8 ± 1.4*,^a ml | 9.9 ± 2.2*,^a ml | 8.9 ± 1.8*,^a ml | 0.8 ± 0.3^a mg | 1.4 ± 0.1^a mg | 1.9 ± 0.2^a mg | 3.47 ± 0.20^a g/100% BW | 4.10 ± 0.20*,^b g/100% BW | 4.20 ± 0.05*,^b g/100% BW | 0.38 ± 0.01^a g/ 100% BW | 0.40 ± 0.02^a g/ 100% BW | 0.39 ± 0.00^a g/ 100% BW | necrotic lesions with infiltration of inflammatory cells, neutrophils and lymphocytes | normal | 2071.9 ± 217.8 | 32.8 ± 3.1*,^b mg/dl | 11.3 ± 2.5*,^a ml | Change in serum ALT levels ([2]; all doses except the lowest (0.4, 0.6, 1.0 mmol/kg) i.p., vs corn oil): marked increases in serum ALT levels; Six-hour urine protein content [5, 14]: 2.8 ± 0.4*,^b mg; Liver weight [6, 14]: 3.97 ± 0.04*,^b g/100% BW; Kidney weight [7, 14]: 0.38 ± 0.01^a g/ 100% BW; Liver morphology ([8]; 0.6 and 1.0 mmol/kg i.p.): necrotic lesions were widespread with many inflammatory cells seen around the lesions
CC1SC(=O)N(c2cc(Cl)cc(Cl)c2)C1=O (stereo not drawn) [DPMT, 3-(3,5-dichlorophenyl)-5-methyl-2,4-thiazolidinedione] | 19.6 ± 0.8^a mg/dl | 24.6 ± 1.3^a mg/dl | 19.8 ± 2.8^a mg/dl | 6.5 ± 2.1^a ml | 8.1 ± 1.7^a ml | 11.6 ± 1.0*,^a ml | 2.1 ± 0.7^a mg | 1.6 ± 0.1^a mg | 2.6 ± 0.8^a mg | 3.67 ± 0.31^a g/100% BW | 3.81 ± 0.22^a g/100% BW | 4.03 ± 0.27^a g/100% BW | 0.37 ± 0.01^a g/ 100% BW | 0.38 ± 0.01^a g/ 100% BW | 0.39 ± 0.01^a g/ 100% BW | did not show any noticeable changes in liver morphology | did not exhibit obvious changes in kidney morphology | 327.3 ± 102.9 | 20.0 ± 2.2^a mg/dl | 10.8 ± 1.3*,^a ml | serum alanine aminotransferase (ALT) activity ([2]; 0.6 mmol/kg i.p. in corn oil): 298.6 ± 176.1 Sigma-Frankel units/ml; Change in serum ALT levels ([2]; 0.6 and 1.0 mmol/kg i.p., vs two lower doses and corn oil): significant elevation in ALT concentrations; Increase in urine volume ([4]; 0.6 and 1.0 mmol/kg): about three-fold increase; Six-hour urine protein content [5, 14]: 2.5 ± 0.3^a mg; Liver weight [6, 14]: 4.10 ± 0.07^a g/100% BW; Kidney weight [7, 14]: 0.41 ± 0.01^a g/ 100% BW; Liver morphology ([8]; 0.6 mmol/kg i.p.): some damage near the centrilobular vein; Liver morphology ([8]; 1.0 mmol/kg i.p.): more damaged hepatocytes
O=C1CSC(=O)N1c1ccccc1 [PTZD, 3-phenyl-2,4-thiazolidinedione] | 24.8 ± 1.9^d mg/dl | 24.1 ± 0.9^d mg/dl | 28.6 ± 2.0*,^d mg/dl | 6.1 ± 1.7^d ml | 11.5 ± 3.2^d ml | 12.5 ± 2.4^d ml | 2.1 ± 0.5^d mg | 2.1 ± 0.2^d mg | 3.4 ± 0.9^d mg | 3.69 ± 0.25^e g/100% BW | 3.68 ± 0.18^e g/100% BW | 4.08 ± 0.08^e g/100% BW | 0.36 ± 0.01^d g/ 100% BW | 0.40 ± 0.00*,^e g/ 100% BW | 0.41 ± 0.01*,^e g/ 100% BW |  | dilation of distal tubules and collecting tubules | 1196.2 ± 133.6 | 31.3 ± 2.4*,^d mg/dl | 22.6 ± 0.4*,^e ml | Change in serum ALT levels ([2]; 0.2 mmol/kg i.p., vs corn oil): did not produce a significant change; ALT elevation compared to corn oil controls ([2]; 0.4 mmol/kg i.p.): approximately 7 fold; ALT elevation compared to corn oil controls ([2]; 0.6 mmol/kg i.p.): ~26 fold; ALT elevation compared to corn oil controls ([2]; 1.0 mmol/kg i.p.): ~33 fold; Six-hour urine protein content [5, 14]: 2.3 ± 0.6^d mg; Liver weight [6, 14]: 4.24 ± 0.06*,^e g/100% BW; Kidney weight [7, 14]: 0.47 ± 0.01 *,^f g/ 100% BW; Liver morphology ([8]; 0.2 mmol/kg i.p.): did not show any signs of hepatic damage; Liver morphology ([8]; 0.4 mmol/kg i.p.): some damage with granular and irregularly stained cytoplasm and indistinct nuclei; Liver morphology ([8]; 1.0 mmol/kg i.p.): larger necrotic lesions were present and an acute inflammatory response occurred
